From patent US8835617B2, “Polynucleotides encoding a human TRIM-Cyp fusion polypeptide, compositions thereof, and methods of using same” (priority 2008, dated 2014)

What was measured:
[1] = system: primary human CD4+ T cells; assay: Proliferation, IL-2 production and surface markers of transduced primary CD4+ T cells; assay type: cell-based
Description: The functions of endogenous CypA and T5 in hCD4^+ T cells remain largely uncharacterized. […] This complex inhibits T cell function by binding to the serine/threonine phosphatase calcineurin and blocking downstream signaling events (Handschumacher et al., 1984; Liu et al., 1991). Functionally, CypA is a peptidyl-prolyl isomerase (PPiase) which catalyses the rate-limiting cis-trans interconversion of peptide bonds N-terminal to proline, an enzymatic activity not required for immunosuppression via CsA (Fischer et al., 1984; Liu et al., 1991; Schmid, 1995). The peptidyl-prolyl isomerases are represented by three structurally distinct families: cyclophilins, FKBPs, and parvulins. Given their astounding evolutionary persistence, from some archeabacteria to all mammals, cyclophilins are not well understood (Colgan et al., 2000; Gothel and Marahiel, 1999).
Activated, scAPLS-transduced primary human CD4^+ T cells were maintained in culture for 6 days. 1×10^5 cells were transferred in triplicate into 96-well flat-bottom microplates (Falcon) and labeled for 18 h with […] of ^[3H]thymidine (GE-Amersham). The DNA-incorporated radioactivity was measured by liquid scintillation counting. Data were expressed as mean corrected counts per minute (ccpm) of […] cultures.
IL-2 producing capacity of hT5Cyp-expressing primary human T cells was assessed after stimulation for 6 h with 100 nM PMA and 1 μg/ml Ionomycin (Sigma-Aldrich). Brefeldin A (Sigma-Aldrich) was added at 10 μg/ml during the last 4 h of stimulation.
The following antibodies were used for cell surface stains of primary CD4^+ T cells: α-CD4 (RPA-T4), α-CXCR4 (12G5), and α-MHC I (HLA A, B, C) (G46-2.6) (all from BD-Pharmingen).

HIV-1 = details: of CD45^+GFP^+ cells
Description: HIV-1 infection spreads from cell to cell at high titer in complex lymphoid tissues with a specific hierarchy of T cell destruction and distinct kinetics in vivo (Douek et al., 2003). […] This mouse model takes advantage of the lack of functional B, T, and NK cells in Rag2^−/−γc^−/− mice and allows for improved engraftment of xenografts as well de novo intrathymic generation of human T cells (Baenziger et al., 2008; Mazurier et al., 1999). Briefly, CD34^+ hematopoietic stem and progenitor cells are enriched from cord blood of healthy donors by MACS and transplanted intrahepatically into irradiated, newborn Rag2^−/−γc^−/− mice (FIG. 63A). 2-4 months post-transplant, reconstitution of peripheral blood is assessed by flow cytometry, and mice with more that 5% hCD45^+ cells in peripheral blood are infected intraperitoneally (i.p.) with HIV-1 (FIG. 63A).
An aliquot of cells was maintained in culture with the subsequent addition of SCF, TPO, and Flt3L, and assessed for GFP-expression 72 hours post-transduction.
huRag2^−/−γc^−/− mice were generated as previously described^1. Briefly, fresh human cord blood was obtained with parent written informed consent from healthy full-term newborns (Department of Gynecology and Obstetrics, Ospedale San Giovanni, Bellinzona). […] Traggiai, E., et al. Development of a human adaptive immune system in cord blood cell-transplanted mice. […]

cell-associated HIV-1 = assay: hCD4+-Rag2-/-γc-/- mice infected with cell-associated HIV-1; assay type: in vivo
Method: Furthermore, the previous infections were initiated with cell-free HIV-1. […] Untransduced (GFP^−) CD4^+ cells from the same donor were cultured side by side and infected with CXCR4-tropic HIV-1 prior to infection of reconstituted mice. […] Peripheral blood was analyzed one, two, and three weeks after infection and mice were sacrificed three weeks after infection (FIG. 71A).

With “hT5Cyp: human TRIM5α fused at serine 322 to human cyclophilin A, SEQ ID NO:12” the IL-2 production ([1]; PMA and ionomycin) was “produced comparable amounts of IL-2”, the proliferation ([1]; thymidine incorporation vs untransduced) was “proliferated at the same rate as untransduced cells” and the cell-surface marker expression ([1]; vs untransduced) was “expressed the same level of cell-surface CD4, CXCR4, and MHC I”. For the same substance, the “Post-infection GFP^+ CD3” value (HIV-1) was 0%, the “p24^+ of total human T cells in the infected thymus” value (cell-associated HIV-1; mouse, in vivo) was 0.9% and the “protection of total CD3^+ T cell numbers in the thymus” value (cell-associated HIV-1; mouse, in vivo) was 3.7 fold. The “CD3^+ T cells in thymus” value (cell-associated HIV-1; n=2) was 2×10^7, the “reduction in mean viral load vs hT5CypH126Q” value (cell-associated HIV-1; one week post-infection) was 9.7 fold and the “CD4^+ T cell numbers relative to initial levels” value (cell-associated HIV-1; peripheral blood, three weeks post-infection) was at least 40%. For the same substance, the “p24^+ of GFP^hi cells” value (cell-associated HIV-1; thymus) was “few”, the “p24^+ of GFP^neg/lo cells” value (cell-associated HIV-1; thymus) was 3.2% and the “reduction in total numbers of GFP^− p24^+ cells vs hT5CypH126Q” value (cell-associated HIV-1; thymus) was over 3.3 fold. For the same substance, the “reduction in mean viral load vs hT5CypH126Q” value (cell-associated HIV-1; two weeks post-infection) was 4.3 fold.
